Data published in patent US6413998B1, “Compositions and methods for treating bone deficit conditions” (Osteoscreen, Inc., priority 1995, dated 2002).

Columns and labels:
TMC-23 cells = experiment: Alkaline phosphatase (ALP) activity in chondrogenic cell line TMC-23; assay type: cell-based, mouse; conditions: day 2, 10^-9 M, compared to vehicle control
Procedure: For measurement of alkaline phosphatase (ALP) activity, the technique of LF Bonewald et al. J Biol Chem (1992) 267:8943-49, was employed. Briefly, TMC-23 cells were plated in 96 well microtiter plates in DMEM containing 10% FCS at 4×10^3 cells/well. Two days after plating, the cells were confluent and the medium was replaced with fresh medium containing 10% FCS and different concentrations of compounds or recombinant BMP-2. After an additional 2 or 5 days incubation, the plates were washed twice with PBS, and then lysing solution (0.05% Triton X-100) was added (100 μl/well). The cells were lysed by three freeze-thaw cycles of −70° C. (30 min), followed by 37° C. (30 min with shaking). Twenty microliters of cell lysates were assayed with 80 μl of 5 mM p-nitrophenol phosphate in 1.5 M 2-amino-2-methyl-propanol buffer, pH 10.3 (Sigma ALP kit, Sigma Chemical Co., St. Louis, Mo.) for 10 min at 37° C. The reaction was stopped by the addition of 100 μl of 0.5 M NaOH. The spectrophotometric absorbance at 405 nm was compared to that of p-nitrophenol standards to estimate ALP activity in the samples. The protein content of the cell lysates was determined by the Bio-Rad protein assay kit (Bio-Rad, Hercules, Calif.). Specific activity was calculated using these two parameters.

ICR Swiss white mice = experiment: In vivo assay of effects of compounds on murine calvarial bone growth; set-up: species or system mouse; conditions: compared to vehicle control; subcutaneous injection over right calvaria, day 14
Procedure: Male ICR Swiss white mice, aged 4-6 weeks and weighing 13-26 gm, are employed, using 4-5 mice per group. The calvarial bone growth assay is performed as described in PCT application WO 95/24211, incorporated by reference. Briefly, the test compound or appropriate control vehicle is injected into the subcutaneous tissue over the right calvaria of normal mice. Typically, the control vehicle is the vehicle in which the compound was solubilzed, and is PBS containing 5% DMSO or is PBS containing Tween (2 μl/10 ml). The animals are sacrificed on day 14 and bone growth measured by histomorphometry. Bone samples for quantitation are cleaned from adjacent tissues and fixed in 10% buffered formalin for 24-48 hours, decalcified in 14% EDTA for 1-3 weeks, processed through graded alcohols, and embedded in paraffin wax. Three to five μm sections of the calvaria are prepared, and representative sections are selected for histomorphometric assessment of the effects on bone formation and bone resorption. Sections are measured by using a camera lucida attachment to trace directly the microscopic image onto a digitizing plate. Bone changes are measured on sections cut 200 μm apart, over 4 adjacent 1×1 mm fields on both the injected and noninjected sides of the calvaria. […]

BMP2 promoter = experiment: BMP-2 promoter luciferase reporter high throughput screening in 2T3-BMP-2-LUC cells; assay type: cell-based, mouse; conditions: at concentration of maximal activity, about 3 μM
Text: A rapid throughput screening test for compounds capable of stimulating expression of a reporter gene linked to a BMP promoter (a surrogate for the production of bone morphogenetic factors that are endogenously produced) is described in U.S. application Ser. No. 08/458,434, filed Jun. 2, 1995, the entire contents of which are incorporated herein by reference. This assay is also described as a portion of a study of immortalized murine osteoblasts (derived from a mouse expressing a transgene composed of a BMP2 promoter driving expression of T-antigen) in Ghosh-Choudhery, N. et al. Endocrinology (1996) 137:331-39. […]
Briefly, the assay utilizes cells transformed permanently or transiently with constructs in which the promoter of a bone morphogenetic protein, specifically BMP2 or BMP4, is coupled to a reporter gene, typically luciferase. These transformed cells are then evaluated for the production of the reporter gene product; compounds that activate the BMP promoter will drive production of the reporter protein, which can be readily assayed. […]
The treated cells were incubated for 24 hours at 37° C. and 5% CO2. […] Luminescence was measured on an automated 96-well luminometer, and was expressed as either picograms of luciferase activity per well or as picograms of luciferase activity per microgram of protein. […]

c1ccc(N=NC2=NNc3ccccc3S2)cc1 [Compound 59-0008, 3-phenylazo-1H-4,1,2-benzothiadiazine]
increase of ALP levels (TMC-23 cells): approximately 3 fold | increase in width of new calvarial bone (ICR Swiss white mice): 4 fold | response (luciferase luminescence) (BMP2 promoter): approximately 175 light emission units
